Laboratory results reported in patent US7638639B2, “Substituted pyrrolidine and related compounds” (Theravance, Inc., priority 2003, dated 2009).

Experiments:
[1] = target: T1, hM2 receptor (Homo sapiens, UniProt P08172); test: Blockade of agonist-mediated [35S]GTPγS binding; format: biochemical; details: CHO-K1 cells expressing the hM2 receptor; read-out: Ki for blockade of oxotremorine-stimulated [35S]GTPγS binding
T1 construct: expressed in transfected cells
T1 sequence (P08172 1-466): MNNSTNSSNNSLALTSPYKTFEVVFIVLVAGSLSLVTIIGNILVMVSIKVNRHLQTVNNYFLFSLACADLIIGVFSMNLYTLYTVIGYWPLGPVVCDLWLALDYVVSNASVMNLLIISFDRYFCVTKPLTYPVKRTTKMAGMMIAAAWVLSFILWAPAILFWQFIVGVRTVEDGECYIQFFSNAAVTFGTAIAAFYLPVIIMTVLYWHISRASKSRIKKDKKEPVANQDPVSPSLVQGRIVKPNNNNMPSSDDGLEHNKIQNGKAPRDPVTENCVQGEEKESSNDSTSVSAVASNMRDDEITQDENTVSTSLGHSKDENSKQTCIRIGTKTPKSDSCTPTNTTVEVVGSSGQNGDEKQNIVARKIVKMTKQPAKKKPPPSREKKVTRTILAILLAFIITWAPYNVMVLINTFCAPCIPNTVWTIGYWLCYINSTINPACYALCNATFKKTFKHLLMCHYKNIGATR
Description: B. Blockade of Agonist-Mediated GTPγ[^35S] Binding
In a second functional assay, the functional potency of a test compound is determined by measuring the ability of the compound to block oxotremorine-stimulated [^35S]GTPγS binding in CHO-K^1 cells expressing the hM2 receptor. At the time of use, frozen membranes were thawed and then diluted in assay buffer with a final target tissue concentration of 5-10 μg protein per well. The membranes were briefly homogenized using a Polytron PT-2100 tissue disrupter and then added to the assay plates.
The EC90 value (effective concentration for 90% maximal response) for stimulation of [^35S]GTPγS binding by the agonist oxotremorine was determined in each experiment.
The assay plates were then incubated at 37° C. for 60 minutes. The assay plates were filtered over 1% BSA-pretreated GF/B filters using a PerkinElmer 96-well harvester. The plates were rinsed with ice-cold wash buffer for 3×3 seconds and then air or vacuum dried. Microscint-20 scintillation liquid (50 μL) was added to each well, and each plate was sealed and radioactivity counted on a topcounter (PerkinElmer). Data were analyzed by nonlinear regression analysis with the GraphPad Prism Software package (GraphPad Software, Inc., San Diego, Calif.) using the non-linear regression, one-site competition equation. […]

[2] = target: T2, hM3 muscarinic receptor subtype (Homo sapiens, UniProt P20309); test: Radioligand binding assay ([3H]-NMS displacement), hM3
T2 construct: expressed in transfected cells
T2 sequence (P20309 whole entry): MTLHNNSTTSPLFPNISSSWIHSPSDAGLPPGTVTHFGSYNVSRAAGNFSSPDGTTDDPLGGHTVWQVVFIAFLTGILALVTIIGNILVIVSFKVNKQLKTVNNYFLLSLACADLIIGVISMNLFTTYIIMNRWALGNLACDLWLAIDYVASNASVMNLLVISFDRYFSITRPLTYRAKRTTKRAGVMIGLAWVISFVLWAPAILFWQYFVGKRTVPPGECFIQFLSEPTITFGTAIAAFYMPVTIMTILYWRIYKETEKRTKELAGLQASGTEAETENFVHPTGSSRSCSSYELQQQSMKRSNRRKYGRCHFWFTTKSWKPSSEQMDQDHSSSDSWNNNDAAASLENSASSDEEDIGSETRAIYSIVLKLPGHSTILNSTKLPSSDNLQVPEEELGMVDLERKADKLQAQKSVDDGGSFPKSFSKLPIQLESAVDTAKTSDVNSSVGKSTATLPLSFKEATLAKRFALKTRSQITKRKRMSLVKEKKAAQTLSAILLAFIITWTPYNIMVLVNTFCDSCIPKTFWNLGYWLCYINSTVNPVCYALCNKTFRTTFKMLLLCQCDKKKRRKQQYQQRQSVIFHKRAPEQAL
Description: (§1) A. Membrane Preparation from Cells Expressing hM1, hM2, hM3 and hM4 Muscarinic Receptor Subtypes
(§2) CHO (Chinese hamster ovary) cell lines stably expressing cloned human hM1, hM2, hM3 and hM4 muscarinic receptor subtypes, respectively, were grown to near confluency in medium consisting of HAM's F-12 supplemented with 10% FBS (Fetal Bovine Serum) and 250 μg/mL Geneticin. The cells were grown in a 5% CO2, 37° C. incubator and lifted with 2 mm EDTA in dPBS. Cells were collected by 5 minute centrifugation at 650×g, and cell pellets were either stored frozen at −80° C. or membranes were prepared immediately. For membrane preparation, cell pellets were resuspended in lysis buffer and homogenized with a Polytron PT-2100 tissue disrupter (Kinematica AG; 20 seconds×2 bursts). Crude membranes were centrifuged at 40,000×g for 15 minutes at 4° C. The membrane pellet was then resuspended with resuspension buffer and homogenized again with the Polytron tissue disrupter. The protein concentration of the membrane suspension was determined by the method described in Lowry, O. et al., 1951, […]: 193, 265. All membranes were stored frozen in aliquots at −80° C. or used immediately. Aliquots of prepared hM5 receptor membranes were purchased directly from Perkin Elmer and stored at −80° C. until use.
(§3) B. Radioligand Binding Assay on Muscarinic Receptor Subtypes hM1, hM2, hM3, hM4 and hM5
(§4) Radioligand binding assays were performed in 96-well microtiter plates in a total assay volume of 100 μL. CHO cell membranes stably expressing either the hM1, hM2, hM3, hM4 or hM5 muscarinic subtype were diluted in assay buffer to the following specific target protein concentrations (μg/well): 10 μg for hM1, 10-15 μg for hM2, 10-20 μg for hM3, 10-20 μg for hM4, and 10-12 μg for hM5. The membranes were briefly homogenized using a Polytron tissue disruptor (10 seconds) prior to assay plate addition. Saturation binding studies for determining KD values of the radioligand were performed using L-[N-methyl-3H]scopolamine methyl chloride ([^3H]-NMS) (TRK666, 84.0 Ci/mmol, Amersham Pharmacia Biotech, Buckinghamshire, England) at concentrations ranging from 0.001 nM to 20 nM. Displacement assays for determination of Ki values of test compounds were performed with [^3H]-NMS at 1 nM and eleven different test compound concentrations. The test compounds were initially dissolved to a concentration of 400 μM in dilution buffer and then serially diluted 5× with dilution buffer to final concentrations ranging from […] to […]. The addition order and volumes to the assay plates were as follows: 25 μL radioligand, 25 μL diluted test compound, and 50 μL membranes. Assay plates were incubated for 60 minutes at 37° C. Binding reactions were terminated by rapid filtration over GF/B glass fiber filter plates (PerkinElmer Inc., Wellesley, Mass.) pre-treated in 1% BSA. Filter plates were rinsed three times with wash buffer (10 mm HEPES) to remove unbound radioactivity. Plates were then air dried, and 50 μL Microscint-20 liquid scintillation fluid (PerkinElmer Inc., Wellesley, Mass.) was added to each well. The plates were then counted in a PerkinElmer Topcount liquid scintillation counter (PerkinElmer Inc., Wellesley, Mass.). Binding data were analyzed by nonlinear regression analysis with the GraphPad Prism Software package (GraphPad Software, Inc., San Diego, Calif.) using the one-site competition model. Ki values for test compounds were calculated from observed IC50 values and the KD value of the radioligand using the Cheng-Prusoff equation (Cheng Y; Prusoff W H. (1973) Biochemical Pharmacology, 22(23):3099-108). Ki values were converted to pKi values to determine the geometric mean and 95% confidence intervals. These summary statistics were then converted back to Ki values for data reporting.

[3] = target: T3, hM2 muscarinic receptor subtype (Homo sapiens, UniProt P08172); test: Radioligand binding assay ([3H]-NMS displacement), hM2
T3 construct: expressed in transfected cells
T3 sequence (P08172 1-466): T1 sequence (P08172 1-466)
Description: as §1, §2, §3, §4

`CNCCCCCCCCN1CC[C@@H](C(C(N)=O)(c2ccccc2)c2ccccc2)C1` [Example 1, 2-[(S)-1-(8-Methylaminooctyl)pyrrolidin-3-yl]-2,2-diphenylacetamide] was tested, and the Ki [1] was less than 5 nM, the Ki ([2]; CHO cell membranes, [3H]-NMS 1 nM, read-out: hM3 binding affinity (Ki)) was 0.96 nM and the “Δ hM3: change in binding affinity relative to compound of the invention” value ([2]; ratio of hM3 Ki values) was “×2.6”. The Ki ([3]; CHO cell membranes, [3H]-NMS 1 nM, read-out: hM2 binding affinity (Ki)) was 3.8 nM and the “Δ hM2: change in binding affinity relative to compound of the invention” value ([3]; ratio of hM2 Ki values) was “×4.7”.
